Molecular target: CD73 (Homo sapiens (Human), UniProt P21589)
Test: Biochemical assay: inhibition of CD73 activity (AMP hydrolysis, Malachite Green readout)
Details: CD73 0.3208 nM, AMP 15 μM, 25 mM Tris-HCl pH 7.4, RT, absorbance 620 nm
How it was run: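 Phosphate from AMP hydrolysis (15 μM AMP, 10 min, RT) was detected by Malachite Green absorbance to give IC50s. Enzyme at 320 pM was first exposed 15 min to compounds, dosed from 100 μM in ½-log steps, in Tris pH 7.4 buffer with MgCl2, Brij-35 and BSA.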

Chain of CD73 (P21589 27-574): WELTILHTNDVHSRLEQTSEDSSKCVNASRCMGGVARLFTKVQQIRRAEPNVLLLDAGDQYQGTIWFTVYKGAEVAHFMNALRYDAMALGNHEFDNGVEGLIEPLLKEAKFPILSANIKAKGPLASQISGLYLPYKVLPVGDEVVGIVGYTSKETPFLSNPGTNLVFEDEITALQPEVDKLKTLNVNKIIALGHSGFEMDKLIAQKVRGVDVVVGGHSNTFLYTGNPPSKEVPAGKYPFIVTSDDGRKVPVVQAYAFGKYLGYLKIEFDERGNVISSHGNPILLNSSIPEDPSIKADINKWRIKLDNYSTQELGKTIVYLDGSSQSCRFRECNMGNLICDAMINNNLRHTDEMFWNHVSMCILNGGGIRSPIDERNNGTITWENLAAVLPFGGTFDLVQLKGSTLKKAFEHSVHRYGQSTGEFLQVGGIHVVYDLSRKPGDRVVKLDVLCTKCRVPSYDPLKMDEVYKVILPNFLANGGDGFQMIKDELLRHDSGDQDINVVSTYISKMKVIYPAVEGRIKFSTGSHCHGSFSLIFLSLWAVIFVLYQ

IC50, ≤ 100 nM:
CC#CC[C@@](CO)(OC[C@H]1O[C@@H](n2ncc3c(NC4CCCC4)nc(Cl)nc32)[C@H](O)[C@@H]1O)P(=O)(O)O [Example 97, ((R)-2-(((2R,3S,4R,5R)-5-(6-chloro-4-(cyclopentylamino)-1H-pyrazolo[3,4-d]pyrimidin-1-yl)-3,4-dihydroxytetrahydrofuran-2-yl)methoxy)-1-hydroxyhex-4-yn-2-yl)phosphonic acid]
CC#CC[C@](CO)(OC[C@H]1O[C@@H](n2ncc3c(NC4CCCC4)nc(Cl)nc32)[C@H](O)[C@@H]1O)P(=O)(O)O [Example 98, ((S)-2-(((2R,3S,4R,5R)-5-(6-chloro-4-(cyclopentylamino)-1H-pyrazolo[3,4-d]pyrimidin-1-yl)-3,4-dihydroxytetrahydrofuran-2-yl)methoxy)-1-hydroxyhex-4-yn-2-yl)phosphonic acid]
C[C@@](CO)(OC[C@H]1O[C@@H](n2ncc3c(N[C@@H]4CCc5ccc(F)cc54)nc(Cl)nc32)[C@H](O)[C@@H]1O)P(=O)(O)O [Example 99, ((R)-2-(((2R,3S,4R,5R)-5-(6-chloro-4-(((R)-6-fluoro-2,3-dihydro-1H-inden-1-yl)amino)-1H-pyrazolo[3,4-d]pyrimidin-1-yl)-3,4-dihydroxytetrahydrofuran-2-yl)methoxy)-1-hydroxypropan-2-yl)phosphonic acid]
O=P(O)(O)C(CO)(CO)OC[C@H]1O[C@@H](n2ncc3c(N[C@@H]4CCc5ccccc54)nc(OCCO)nc32)[C@H](O)[C@@H]1O [Example 100, (2-(((2R,3S,4R,5R)-5-(4-(((R)-2,3-dihydro-1H-inden-1-yl)amino)-6-(2-hydroxyethoxy)-1H-pyrazolo[3,4-d]pyrimidin-1-yl)-3,4-dihydroxytetrahydrofuran-2-yl)methoxy)-1,3-dihydroxypropan-2-yl)phosphonic acid]
C[C@@](CO)(OC[C@H]1O[C@@H](n2ncc3c(NC4CCC4)nc(Cl)nc32)[C@H](O)[C@@H]1O)P(=O)(O)O [Example 101, ((R)-2-(((2R,3S,4R,5R)-5-(6-chloro-4-(cyclobutylamino)-1H-pyrazolo[3,4-d]pyrimidin-1-yl)-3,4-dihydroxytetrahydrofuran-2-yl)methoxy)-1-hydroxypropan-2-yl)phosphonic acid]
C[C@](CO)(OC[C@H]1O[C@@H](n2ncc3c(NC4CCC4)nc(Cl)nc32)[C@H](O)[C@@H]1O)P(=O)(O)O [Example 102, ((S)-2-(((2R,3S,4R,5R)-5-(6-chloro-4-(cyclobutylamino)-1H-pyrazolo[3,4-d]pyrimidin-1-yl)-3,4-dihydroxytetrahydrofuran-2-yl)methoxy)-1-hydroxypropan-2-yl)phosphonic acid]
O=P(O)(O)[C@](CO)(Cc1nn[nH]n1)OC[C@H]1O[C@@H](n2ncc3c(NC4CCCC4)nc(Cl)nc32)[C@H](O)[C@@H]1O [Example 103, ((S)-2-(((2R,3S,4R,5R)-5-(6-chloro-4-(cyclopentylamino)-1H-pyrazolo[3,4-d]pyrimidin-1-yl)-3,4-dihydroxytetrahydrofuran-2-yl)methoxy)-1-hydroxy-3-(2H-tetrazol-5-yl)propan-2-yl)phosphonic acid]
O=P(O)(O)[C@@](CO)(Cc1nn[nH]n1)OC[C@H]1O[C@@H](n2ncc3c(NC4CCCC4)nc(Cl)nc32)[C@H](O)[C@@H]1O [Example 104, ((R)-2-(((2R,3S,4R,5R)-5-(6-chloro-4-(cyclopentylamino)-1H-pyrazolo[3,4-d]pyrimidin-1-yl)-3,4-dihydroxytetrahydrofuran-2-yl)methoxy)-1-hydroxy-3-(2H-tetrazol-5-yl)propan-2-yl)phosphonic acid]
CC1(Nc2nc(Cl)nc3c2cnn3[C@@H]2O[C@H](CO[C@@](C)(CO)P(=O)(O)O)[C@@H](O)[C@H]2O)CCCC1 [Example 105, ((R)-2-(((2R,3S,4R,5R)-5-(6-chloro-4-((1-methylcyclopentyl)amino)-1H-pyrazolo[3,4-d]pyrimidin-1-yl)-3,4-dihydroxytetrahydrofuran-2-yl)methoxy)-1-hydroxypropan-2-yl)phosphonic acid]

Source: US11325938B2, “CD73 inhibitors” (ORIC Pharmaceuticals, Inc., priority 2018, dated 2022)
